IC50, clearance and bioavailability data for 27 compounds are collected here from ChEMBL document CHEMBL1781986, “Structure-activity relationships of pyrrole based S-nitrosoglutathione reductase inhibitors: pyrrole regioisomers and propionic acid replacement” (Bioorg Med Chem Lett, 2011).

The term pIC50 denotes the negative decadic logarithm of the IC50, by convention in mol/L. A low value points to a large IC50. By bioavailability is commonly meant the share of a dose that reaches the circulation, judged against a reference dose that is usually intravenous. Low values mean little systemic uptake, high ones much systemic uptake.

Data set [1] can be described thus: Inhibition of GSNOR expressed in Escherichia coli using GSNO by cuvette method.
The nature of data set [2]: Inhibition of GSNOR expressed in Escherichia coli using GSNO by plate method.
A short description of data set [3]: Clearance in BALB/c mouse plasma at 2 mg/kg, iv or at 10 mg/kg, po administered as single dose. In kind it is ADME, organism-based.
Data set [4] can be described thus: Oral bioavailability in BALB/c mouse at 10 mg/kg administered as single dose. Type of data set: ADME, organism-based. The following applies: in vivo.
Another data set has as its system A549. In words: Cytotoxicity against human A549 cells. Type of data set: functional, cell-based.

Molecules are shown by their SMILES. pIC50: −log10 of the molar value.

Turning to `COc1ccc(-c2ccn(-c3ccc(C(=O)O)c(Cl)c3)c2-c2ccc(C(N)=O)cc2C)cc1`, the pIC50 in data set [1] was 5.46.
The same measure, in the same setting: as for `COc1ccc(-c2ccn(-c3ccc(C(=O)O)c(F)c3)c2-c2ccc(C(N)=O)cc2C)cc1`, the figure is 5.80; as for `COc1ccc(-c2ccn(-c3ccc(S(N)(=O)=O)cc3)c2-c2ccc(C(N)=O)cc2C)cc1`, 4.55.
`COc1ccc(-c2ccn(-c3ccc(C(=O)O)cc3)c2-c2ccc(C(N)=O)cc2C)cc1`: the pIC50 in data set [1] was 6.07.
On the same count and under the same terms, as for `COc1ccc(-c2ccn(CC(N)C(=O)O)c2-c2ccc(C(N)=O)cc2C)cc1` (stereo not drawn), the figure is less than 4.00.
The compound `COc1cc(Cl)ccc1-n1ccc(CCC(=O)O)c1-c1ccc(C(N)=O)cc1C` had a pIC50 in data set [2] of 7.31.
As to `COc1ccc(-c2ccn(C(CC(=O)O)C(C)C)c2-c2ccc(C(N)=O)cc2C)cc1` (stereo not drawn), the pIC50 in data set [1] was 4.01.
In the case of `COc1ccc(-c2ccn(-c3ccc(C(=O)O)nc3)c2-c2ccc(C(N)=O)cc2C)cc1`, the pIC50 in data set [1] was 5.07.
Consider `COc1cc(Cl)ccc1-c1ccc(CCC(=O)O)n1-c1ccc(C(N)=O)cc1C`, for which the pIC50 in data set [2] was 7.27.
As for `COc1ccc(-c2ccn(CCC(=O)O)c2-c2ccc(C(N)=O)cc2C)cc1`, the clearance in data set [3] worked out at 3.14 L/h/kg. Further, the bioavailability in data set [4] amounted to 12.2%. Further, the pIC50 in the data set with A549 is less than 3.60; in data set [2], 6.18; in data set [1] it was 6.28.
For `COc1ccc(-c2ccn(C(CC(=O)O)c3ccccc3)c2-c2ccc(C(N)=O)cc2C)cc1` (stereo not drawn), in data set [1], the pIC50 is 5.05.
Regarding `COc1ccc(-n2ccc(CCC(=O)O)c2-c2ccc(C(N)=O)cc2C)cc1`, in data set [2], the pIC50 is 6.80.
In data set [1], `COc1ccc(-c2ccn(C3CCC(C(=O)O)CC3)c2-c2ccc(C(N)=O)cc2C)cc1` (stereo not drawn) had a pIC50 of less than 4.00.
As for `COc1ccc(-c2ccn(CC(C)C(=O)O)c2-c2ccc(C(N)=O)cc2C)cc1` (stereo not drawn), the pIC50 in data set [1] was 5.71.
On the same count and under the same terms, as for `COc1ccc(-c2ccn(-c3ccc(O)c(C(=O)O)c3)c2-c2ccc(C(N)=O)cc2C)cc1`, the figure is 6.39; as for `COc1ccc(-c2ccn(C(C)CC(=O)O)c2-c2ccc(C(N)=O)cc2C)cc1` (stereo not drawn), 4.85.
`COc1ccc(-c2ccc(CCC(=O)O)n2-c2ccc(C(N)=O)cc2C)cc1` had a clearance in data set [3] of 2.12 L/h/kg. For the same compound, in data set [4], the bioavailability was determined as 16.2%. The same compound gave a pIC50 in data set [2] of 6.74.
In data set [1], `COc1ccc(-c2ccn(-c3ccc(O)cn3)c2-c2ccc(C(N)=O)cc2C)cc1` gave a negative-log IC50 (pIC50) of 5.52.
Compound `COc1ccc(-c2ccn(-c3ccc(O)nc3)c2-c2ccc(C(N)=O)cc2C)cc1` had a pIC50 in data set [1] of 4.67.
Still for that read-out and setting: as for `CCCC(CC(=O)O)n1ccc(-c2ccc(OC)cc2)c1-c1ccc(C(N)=O)cc1C` (stereo not drawn), the figure is 4.20; as for `COc1ccc(-c2ccn(CC3(C(=O)O)CC3)c2-c2ccc(C(N)=O)cc2C)cc1`, 5.09; as for `COc1ccc(-c2ccn(CC(O)C(=O)O)c2-c2ccc(C(N)=O)cc2C)cc1` (stereo not drawn), 4.63.
Still for that read-out and setting: as for `COc1ccc(-c2ccn(-c3ccc(C(=O)O)cn3)c2-c2ccc(C(N)=O)cc2C)cc1`, the figure is 4.53; as for `COc1ccc(-c2ccn(-c3cc(F)c(O)c(F)c3)c2-c2ccc(C(N)=O)cc2C)cc1`, 6.35; as for `COc1ccc(-c2ccn(-c3ccc(O)c(F)c3)c2-c2ccc(C(N)=O)cc2C)cc1`, 6.34.
Still for that read-out and setting: as for `COc1ccc(-c2ccn(C(CC(=O)O)C3CC3)c2-c2ccc(C(N)=O)cc2C)cc1` (stereo not drawn), the figure is less than 4.00; as for `COc1ccc(-c2ccn(CC(F)(F)C(=O)O)c2-c2ccc(C(N)=O)cc2C)cc1`, 5.82.
